Experimental data as given in US20230407265A1, “COMPOSITION AND METHODS FOR 3D CULTURE OF ISLET CELLS” (CITY OF HOPE, priority 2022, published 2023).
Non-standard residues stand in square brackets, D forms with d. Residues, ends and D or L forms follow the SMILES beside them. pGlu = O=C1CC[C@@H](C(=O)O)N1

Tested on: human islets
Test: Islet viability and morphology assessment (PI/HO or FDA, DTZ staining)
Type: cell-based
Settings: 4 weeks in 3D hydrogel with 100 nM gastrin
Experimental: Islet cells were stained with 10 μg/mL propidium iodide (PI) (Millipore Sigma, St. Louis, MO, USA) and 10 μg/mL of Hoechst 33342 (HO) (Thermo Fisher Scientific, Waltham, MA) for 5 minutes at room temperature, washed with PBS, then placed on a 6-well plate. The images of PI/HO staining were taken under a IXDP50 Olympus fluorescent microscope with DP74 camera using a 4× objective lens (Olympus America). Viability was determined by the area of PI staining divided by the area of HO staining analyzed by CellSens software. For the experiment with gastrin culture, 0.5 μM Fluorescein diacetate (FDA) solution (Millipore Sigma) was used instead of HO to determine the viable total islets. The viability was determined by the area of PI staining divided by the total islet area analyzed by CellSens software. Islet morphology was evaluated by dithizone (DTZ) staining.

Work on CC(C)C[C@H](NC(=O)[C@H](Cc1c[nH]c2ccccc12)NC(=O)CNC(=O)[C@H](Cc1ccc(O)cc1)NC(=O)[C@H](C)NC(=O)[C@H](CCC(=O)O)NC(=O)[C@H](CCC(=O)O)NC(=O)[C@H](CCC(=O)O)NC(=O)[C@H](CCC(=O)O)NC(=O)[C@H](CCC(=O)O)NC(=O)[C@H](CC(C)C)NC(=O)[C@H](Cc1c[nH]c2ccccc12)NC(=O)[C@@H]1CCCN1C(=O)CNC(=O)[C@@H]1CCC(=O)N1)C(=O)N[C@@H](CC(=O)O)C(=O)N[C@@H](Cc1ccccc1)C(N)=O [gastrin, [Leu15]-gastrin I] ([pGlu]GPWLEEEEEAYGWLDF-NH2) yielded an islet viability of 92±6%.
